Laboratory results published in ChEMBL document CHEMBL1129446, “Hydroxamic acid-based bisubstrate analog inhibitors of Ras farnesyl protein transferase” (J Med Chem, 1996).
pIC50: −log10 of the molar value.

Biological target: Protein farnesyltransferase (Sus scrofa)
Experiment: In vitro activity against Protein farnesyltransferase
Conditions: read-out: I50

| SMILES | pIC50 |
| --- | --- |
| CC(C)=CCC/C(C)=C/CC/C(C)=C/CN(O)C(=O)CCC(=O)N[C@H](C(=O)N[C@@H](CC(C)C)C(=O)N[C@@H](CO)C(=O)O)C(C)C | 4.37 |
| CC(C)C[C@H](NC(=O)[C@@H](NC(=O)[C@H](CC(=O)N(C)O)NC(=O)OC(C)(C)C)C(C)C)C(=O)N[C@@H](CO)C(=O)O | < 3.44 |
| CSCC[C@H](NC(=O)[C@@H](NC(=O)[C@@H](NC(=O)CC(=O)N(O)C/C=C(\C)CC/C=C(\C)CCC=C(C)C)C(C)C)C(C)C)C(=O)O | 6.48 |
| CC(C)C[C@H](NC(=O)[C@@H](NC(=O)[C@@H](N)CC(=O)N(C)OCc1ccccc1)C(C)C)C(=O)N[C@@H](CO)C(=O)O | < 3.44 |
| CSCC[C@H](NC(=O)[C@@H](NC(=O)[C@@H](NC(=O)CC(=O)N(O)CC/C=C(\C)CC/C=C(\C)CCC=C(C)C)C(C)C)C(C)C)C(=O)O | 5.25 |
| CC(C)C[C@H](NC(=O)[C@@H](NC(=O)[C@@H](N)CC(=O)N(C)O)C(C)C)C(=O)N[C@@H](CO)C(=O)O | < 3.44 |
| CC(C)C[C@H](NC(=O)[C@@H](NC(=O)[C@H](CC(=O)N(C)OCc1ccccc1)NC(=O)OC(C)(C)C)C(C)C)C(=O)N[C@@H](CO)C(=O)O | < 3.44 |
| CSCC[C@@H](NC(=O)[C@@H](NC(=O)[C@@H](NC(=O)CC(=O)N(O)C/C=C(\C)CC/C=C(\C)CCC=C(C)C)C(C)C)C(C)C)C(=O)O | 4.52 |
